Data published in PubChem BioAssay AID1845208 (Molecular Pharmacology Branch, DTP, NCI, 2023).

System: NCI-H196 SCLC complex tumor spheroid viability
Test: Anticancer human tumor NCI-H196 cell line growth inhibition;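 also: spheroids exposed to compounds for 7 days before readout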;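 as to viability, T/C: 100% = DMSO vehicle control wells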
Conditions: for IC50: curve of first compound; for viability, T/C: stronger effect = lower value
Excerpt: Multicellular complex tumor spheroid response to DNA repair inhibitors in combination with DNA-damaging drugs
This study explores the anticancer activities of DNA-damaging drugs and inhibitors of DNA damage repair, both as single agents and in combinations. Complex tumor spheroids comprised of malignant cells, endothelial cells and mesenchymal stem cells served as an in vitro model for human solid tumors. This model system incorporates physiologically relevant features and patient-derived or established malignant cell lines with clinically relevant genetic alterations from many tumor types. Twenty-six patient-derived or established malignant cell lines were evaluated representing sarcoma, melanoma, small cell lung cancer (SCLC), non-small cell lung cancer (NSCLC), as well as bladder, ovarian and pancreatic cancers. The concentration ranges selected for each drug and investigational agent were based upon clinically achievable concentrations if the clinical Cmax of the agent was known.
Compounds. The drugs and compounds olaparib (NSC753686), talazoparib (NSC767125), berzosertib (NSC777718), elimusertib (NSC800525), nedisertib (NSC802822), VX-984 (NSC792969), AZD-1390 (NSC803789), temozolomide (NSC362856), topotecan (NSC609699), trabectedin (NSC813783), staurosporine (NSC755774), and gemcitabine (NSC613327) were obtained from the National Cancer Institute (NCI) Developmental Therapeutics Program Chemical Repository. The FDA-approved anticancer drug set is available from the Developmental Therapeutics Program at https://dtp.cancer.gov/organization/dscb/obtaining/available_plates.htm. […] The stock solutions were prepared in dimethyl sulfoxide (DMSO, Sigma-Aldrich, St. Louis, MO, cat. D2650) at 400-fold the tested concentration and stored at -70 degrees C. Prior to their use, the stock solutions were diluted in fresh medium and the final DMSO concentration in the assay was 0.25% (v/v). All drugs and investigational agents were tested over a range starting from a high concentration at or near the clinical Cmax and decreasing in half-log increments. If the clinical Cmax for an agent had not been determined, the highest concentration tested was 10 microM.
Cell Lines. The patient-derived cancer cell (PDC) lines: 156681-154-R-J1-PDC, 283228-195-R-J1-PDC, 287954-098-R-J1-PDC, 292921-168-R-J2-PDC, 349418-098-R-PDC, 425362-245-T-J1-PDC, 556581-035-R-J1-PDC, and BL0293-F563-PDC were received from the NCI Patient-Derived Models Repository (PDMR, https://pdmr.cancer.gov). The established cell lines HS-SY-2 (RRID:CVCL_8719), MPNST, and SYO-1 (RRID:CVCL_7146) were obtained from the Sloan Kettering Institute. The alveolar soft parts sarcoma cell line ASPS-1 (RRID:CVCL_S738) was established at the NCI and grown from internal seed stocks. The following established cell lines were purchased from the American Type Culture Collection (ATCC, Manassas, VA): G-401 (ATCC, cat. CRL-1441, RRID:CVCL_0270), SW982 (ATCC, cat. HTB-93, RRID:CVCL_1734), VA-ES-BJ (ATCC, cat. CRL-2138, RRID:CVCL_1785), NCI-H719 (ATCC, cat. CRL-5837, RRID:CVCL_1582), NCI-H196 (ATCC, cat. CRL-5823, RRID:CVCL_1509), NCI-H841 (ATCC, cat. CRL-5845, RRID:CVCL_1595), NCI-H1618 (ATCC, cat. CRL-5879, RRID:CVCL_1480), NCI-H1876 (ATCC, cat. CRL-5902, RRID:CVCL_1503), DMS 114 (ATCC, cat. CRL-2066; RRID:CVCL_1174), NCI-H211 (ATCC, cat. CRL-5824; RRID:CVCL_1529), and SW 1271 (ATCC, cat. CRL-2177, RRID:CVCL_1716). The small cell lung cancer cell line COR-L88 was purchased from Sigma-Aldrich (cat. 92031917-1VL, RRID:CVCL_1141). The non-small cell lung cancer cell lines NCI-H226 (RRID:CVCL_1544) and NCI-H322M (RRID:CVCL_1557) were established at the NCI and grown from internal seed stocks. Pooled donor human umbilical vein endothelial cells (HUVEC, Lonza, cat. CC-2519) and human mesenchymal stem cells (hMSC, Lonza, cat. PT-2501) were purchased from Lonza (Walkersville, MD).
Cell Culture. All cells were maintained in an incubator at 37 degrees C and 5% CO2 with 95% humidity. […]

[1] = second compound 0.003 µM, first compound 0.00949 µM
[2] = second compound 0.003 µM, first compound 0.03 µM
[3] = second compound 0.003 µM, first compound 0.0949 µM
[4] = second compound 0.003 µM, first compound 0.3 µM
[5] = second compound 0.003 µM, first compound 0.949 µM
[6] = second compound 0.003 µM, first compound 3 µM
[7] = second compound 0.00949 µM, first compound 0.00949 µM
[8] = second compound 0.00949 µM, first compound 0.03 µM
[9] = second compound 0.00949 µM, first compound 0.0949 µM
[10] = second compound 0.00949 µM, first compound 0.3 µM
[11] = second compound 0.00949 µM, first compound 0.949 µM
[12] = second compound 0.00949 µM, first compound 3 µM
[13] = second compound 0.03 µM, first compound 0.00949 µM
[14] = second compound 0.03 µM, first compound 0.03 µM
[15] = second compound 0.03 µM, first compound 0.0949 µM
[16] = second compound 0.03 µM, first compound 0.3 µM
[17] = second compound 0.03 µM, first compound 0.949 µM
[18] = second compound 0.03 µM, first compound 3 µM
[19] = second compound 0.0949 µM, first compound 0.00949 µM
[20] = second compound 0.0949 µM, first compound 0.03 µM
[21] = second compound 0.0949 µM, first compound 0.0949 µM
[22] = second compound 0.0949 µM, first compound 0.3 µM
[23] = second compound 0.0949 µM, first compound 0.949 µM
[24] = second compound 0.0949 µM, first compound 3 µM
[25] = second compound 0.3 µM, first compound 0.00949 µM
[26] = second compound 0.3 µM, first compound 0.03 µM
[27] = second compound 0.3 µM, first compound 0.0949 µM
[28] = second compound 0.3 µM, first compound 0.3 µM
[29] = second compound 0.3 µM, first compound 0.949 µM
[30] = second compound 0.3 µM, first compound 3 µM

SMILES	IC50 (second compound 0.003 µM) [nM]	IC50 (second compound 0.00949 µM) [nM]	IC50 (second compound 0.03 µM) [nM]	IC50 (second compound 0.0949 µM) [nM]	IC50 (second compound 0.3 µM) [nM]	viability, T/C [1] [%]	viability, T/C [2] [%]	viability, T/C [3] [%]	viability, T/C [4] [%]	viability, T/C [5] [%]	viability, T/C [6] [%]	viability, T/C [7] [%]	viability, T/C [8] [%]	viability, T/C [9] [%]	viability, T/C [10] [%]	viability, T/C [11] [%]	viability, T/C [12] [%]	viability, T/C [13] [%]	viability, T/C [14] [%]	viability, T/C [15] [%]	further results
CNCc1ccc(-c2cc(-c3nc(-c4ccc(S(=O)(=O)C(C)C)cc4)cnc3N)on2)cc1 + CC[C@@]1(O)C(=O)OCc2c1cc1n(c2=O)Cc2cc3c(CN(C)C)c(O)ccc3nc2-1	> 3000	> 3000	> 3000	> 3000	> 3000	101	102	101	94.3	86.2	76.1	98.5	99	112	95.7	84.1	78.7	101	101	101	viability, T/C [16]: 93.2%; viability, T/C [17]: 76.9%; viability, T/C [18]: 81.6%; viability, T/C [19]: 99.9%; viability, T/C [20]: 104%; viability, T/C [21]: 121%; viability, T/C [22]: 88.7%; viability, T/C [23]: 89.3%; viability, T/C [24]: 75.1%; viability, T/C [25]: 94.9%; viability, T/C [26]: 93.7%; viability, T/C [27]: 92.7%; viability, T/C [28]: 75%; viability, T/C [29]: 65%; viability, T/C [30]: 57.1%
Cc1sc2c(c1C)C(c1ccc(Cl)cc1)=NC(CC(=O)Nc1ccc(O)cc1)c1nnc(C)n1-2 (stereo not given) + CC[C@@]1(O)C(=O)OCc2c1cc1n(c2=O)Cc2cc3c(CN(C)C)c(O)ccc3nc2-1	613	688	656	755	373	98.8	101	86.2	70.2	37.8	19.2	98.7	96.1	86.8	76.6	39.1	23.7	96.1	84	80.3	viability, T/C [16]: 64.7%; viability, T/C [17]: 41.8%; viability, T/C [18]: 29.9%; viability, T/C [19]: 98%; viability, T/C [20]: 93.6%; viability, T/C [21]: 88.1%; viability, T/C [22]: 67.4%; viability, T/C [23]: 46%; viability, T/C [24]: 32.3%; viability, T/C [25]: 92.3%; viability, T/C [26]: 92.8%; viability, T/C [27]: 78.9%; viability, T/C [28]: 49.8%; viability, T/C [29]: 40.1%; viability, T/C [30]: 24.4%
